The subject of assay [1] is HMEC-1. In words: PGE2-induced vascular endothelial cell tube formation on Matrigel. The following applies: 10 ppm, 2 hours pretreatment; 20 μM PGE2, 24 hours; FIGS. 10 and 11. The class given is cell-based, human. Here is the method: Human vascular endothelial cells (HMEC-1) were seeded in a Matrigel-coated 24-well plate at a density of 1.2×10^5 cells per well, and each well was pretreated with 10 ppm of isookanin for 2 hours. Next, each well was treated with PGE2 at a concentration of 20 μM and incubated for 24 hours. As a negative control, 100 ng/ml of VEGF was used. After 24 hours of incubation, the degree of vascular cell tube formation was observed using a microscope, and the results were photographed with a microscope camera and analyzed with Image J, and are shown in FIGS. 10 and 11.

Assay [2] relates to HMEC-1. In words: PGE2-induced vascular endothelial cell migration (scratch assay). It counts as cell-based, human. The following applies: 2 hours pretreatment; 20 μM PGE2, 24 hours; FIG. 9. Here is the method:
Human vascular endothelial cells (HMEC-1) were seeded in a 12-well plate at a density of 2×10^5 cells per well and cultured in an incubator for 24 hours at 37° C. under 5% CO2. After the cells in each well were grown to 80% confluency, the central part of each well was scratched using a yellow pipette tip. Next, each well was pretreated with each concentration of isookanin for 2 hours and then treated with 20 μM PGE2 and incubated for 24 hours. As a negative control, 100 ng/ml of VEGF was used. After 24 hours of incubation, the degree of vascular cell migration was observed using a microscope, and the results were photographed with a microscope camera and shown in FIG. 9.

The next assay addresses T1, COX-2 (Homo sapiens, UniProt P35354).
T1 construct: BioVision
T1 sequence (P35354 18-604): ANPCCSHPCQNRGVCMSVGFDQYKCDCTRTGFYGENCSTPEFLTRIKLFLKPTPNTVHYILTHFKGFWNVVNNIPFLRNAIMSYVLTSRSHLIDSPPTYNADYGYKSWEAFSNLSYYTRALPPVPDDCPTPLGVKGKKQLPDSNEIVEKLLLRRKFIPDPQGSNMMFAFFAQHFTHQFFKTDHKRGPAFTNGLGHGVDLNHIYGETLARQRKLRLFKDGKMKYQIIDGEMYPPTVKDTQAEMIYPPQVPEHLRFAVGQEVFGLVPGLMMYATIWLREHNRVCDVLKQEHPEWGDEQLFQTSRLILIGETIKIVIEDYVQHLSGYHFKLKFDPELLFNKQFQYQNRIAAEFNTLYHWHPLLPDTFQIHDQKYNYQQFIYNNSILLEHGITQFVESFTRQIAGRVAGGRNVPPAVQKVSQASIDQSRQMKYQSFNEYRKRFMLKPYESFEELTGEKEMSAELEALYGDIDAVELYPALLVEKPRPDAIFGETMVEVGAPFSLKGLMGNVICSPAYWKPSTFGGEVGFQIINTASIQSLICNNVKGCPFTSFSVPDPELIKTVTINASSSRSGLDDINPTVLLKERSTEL
In words: COX-2 enzyme activity, cyclooxygenase (COX) activity assay kit. It counts as biochemical. The following applies: 5, 10 and 20 ppm; FIG. 5. Here is the method: COX-2 enzyme inhibitory activity was measured using a cyclooxygenase (COX) activity assay kit (BioVision). 2 μl of COX probe, 4 μl of diluted COX cofactor, and varying concentrations (5, 10, and 20 ppm) of isookanin were added to the COX assay buffer included in the kit. As a negative control, DMSO was added instead of isookanin, and as a positive control, the COX-2 inhibitor celecoxib was added.

In another assay the target is Janus kinase 1 (Homo sapiens, UniProt P23458). In words: Janus kinase 1 activity inhibition, HTRF KinEASE-TK kit (TR-FRET). It counts as biochemical. The settings on record: FIG. 1. Here is the method:
The effect of isookanin on the inhibition of Janus kinase 1 activity was measured using the HTRF KinEASE-TK kit (Cisbio, France). HTRF is a time-resolved fluorescence resonance energy transfer technology (TR-FRET) analysis method, which is applied to high-throughput screening (HTS) and is one of the methods widely used in drug development. From general cytokine measurement, enzyme activity, protein phosphorylation, protein-protein interaction, cAMP measurement, and the like can be measured by fluorescence through acceptor/donor reaction, and HTRF has an advantage in that, since measurement is carried out in two wavelength regions, it is possible to reduce interference from buffers and media. All components of the HTRF KinEase™-TK kit were handled according to the instructions. For kinases, the ability of a test substance to inhibit kinase activity is measured by allowing a kinase to react with an appropriate substrate in the presence or absence of a sample and capturing the phosphorylated substrate by a detection reagent. Briefly, the following two steps performed.
A kinase is allowed to react with an appropriate substrate in the presence and absence of a sample. Enzyme buffer is used as a control (−) instead of the sample, and the group treated with 100 nM of loxolitinib is used as a positive control. […]
Step 2. Fluorescence Detection […]
(In general: TR-FRET usually uses a lanthanide donor and a delayed reading to cut background.)

Another assay deals with PGE2. Description: LPS-induced PGE2 secretion in RAW 264.7 macrophages (ELISA). The class given is cell-based, mouse. The settings on record: 1, 5 and 10 ppm, LPS 100 ng/mL, FIG. 7. As to the method:
Mouse macrophages (RAW 264.7) were seeded in a 24-well microplate at a density of about 2×10^5 cells per well, and cultured in an incubator for 24 hours at 37° C. under 5% CO2. Thereafter, the cells were treated with each of 1, 5 and 10 ppm of isookanin, and then treated with LPS (100 ng/mL) and cultured, and then the cell culture medium was collected. Next, the secretion level of PGE2 was measured using an ELISA kit. As a negative control group (−), mouse macrophages not treated with isookanin and LPS were used.

The next assay concerns COX-2 promoter. In words: LPS-induced COX-2 promoter luciferase reporter in RAW 264.7 macrophages. The following applies: 1, 5 and 10 ppm, LPS 100 ng/mL, FIG. 4. The class given is cell-based, mouse. As to the method: Mouse macrophages (RAW 264.7) were seeded in a 24-well microplate at a density of about 2×10^5 cells per well, and cultured in an incubator for 24 hours at 37° C. under 5% CO2. The RAW264.7 cells were transfected with the COX-2 promoter luciferase reporter plasmid, and then treated with 1, 5, and 10 ppm of isookanin, and then treated with LPS (100 ng/mL). After culturing, the cell culture was harvested. Subsequently, luciferase enzyme activity was measured using a microplate reader (Sunrise, Tecan, Switzerland). Mouse macrophages not treated with isookanin and LPS were used as a negative control (−).
(In a reporter assay the amount or activity of a reporter protein is the signal.)

Chain of Janus kinase 1 (P23458 whole entry, species assumed): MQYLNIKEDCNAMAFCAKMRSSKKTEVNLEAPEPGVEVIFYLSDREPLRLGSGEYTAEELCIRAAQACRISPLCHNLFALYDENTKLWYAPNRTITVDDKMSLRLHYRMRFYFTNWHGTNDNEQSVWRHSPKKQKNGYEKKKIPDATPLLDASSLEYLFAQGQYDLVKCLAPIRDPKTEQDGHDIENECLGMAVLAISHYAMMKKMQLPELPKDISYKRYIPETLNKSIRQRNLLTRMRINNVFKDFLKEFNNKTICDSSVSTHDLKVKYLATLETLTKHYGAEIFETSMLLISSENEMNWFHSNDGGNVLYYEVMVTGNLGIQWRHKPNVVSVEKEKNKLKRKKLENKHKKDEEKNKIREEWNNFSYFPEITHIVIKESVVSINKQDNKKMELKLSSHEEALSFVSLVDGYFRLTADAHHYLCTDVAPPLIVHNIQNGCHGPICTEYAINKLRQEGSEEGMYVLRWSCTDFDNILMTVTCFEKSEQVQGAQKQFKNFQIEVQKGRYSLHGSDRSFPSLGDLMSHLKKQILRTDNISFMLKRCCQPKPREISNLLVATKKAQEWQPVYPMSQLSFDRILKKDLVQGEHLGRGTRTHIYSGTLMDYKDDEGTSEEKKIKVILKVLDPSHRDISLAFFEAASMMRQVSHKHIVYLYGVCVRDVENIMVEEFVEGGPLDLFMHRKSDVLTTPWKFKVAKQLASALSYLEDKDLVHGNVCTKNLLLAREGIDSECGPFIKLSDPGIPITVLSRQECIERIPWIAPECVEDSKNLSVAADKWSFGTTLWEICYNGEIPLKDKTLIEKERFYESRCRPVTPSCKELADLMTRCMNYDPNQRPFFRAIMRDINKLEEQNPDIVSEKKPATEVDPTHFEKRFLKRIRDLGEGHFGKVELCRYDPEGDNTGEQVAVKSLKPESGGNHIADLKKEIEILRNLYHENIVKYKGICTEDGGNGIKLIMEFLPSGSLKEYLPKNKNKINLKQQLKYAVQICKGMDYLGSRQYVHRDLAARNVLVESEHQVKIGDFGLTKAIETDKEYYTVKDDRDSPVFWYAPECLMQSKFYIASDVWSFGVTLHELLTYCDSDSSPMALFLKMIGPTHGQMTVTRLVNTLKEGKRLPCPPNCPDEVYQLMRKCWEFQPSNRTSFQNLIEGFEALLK

Take `O=C1C[C@@H](c2ccc(O)c(O)c2)Oc2c1ccc(O)c2O` [isookanin]: the “inhibition of human vascular endothelial cell tube formation induced by PGE2” value in the assay with HMEC-1 [1] is “effectively inhibiting human vascular endothelial cell tube formation induced by PGE2”. The “inhibition of human vascular endothelial cell migration induced by PGE2” value in the assay with HMEC-1 [2] is listed as “effectively inhibiting human vascular endothelial cell migration induced by PGE2”. Moreover, on COX-2, the “inhibition of COX-2 enzyme activity” value is on record as “inhibiting the activity of COX-2 enzyme in a concentration-dependent manner”. Also, the “inhibition of Janus kinase 1 activity” value on Janus kinase 1 is given as “significantly inhibited”. In addition, the “inhibition of LPS-induced PGE2 expression” value with PGE2 was “inhibiting the LPS-induced expression of PGE2 in a concentration-dependent manner”. In addition, in the assay with COX-2 promoter, the “inhibition of LPS-induced activation of COX-2 promoter” value is reported as “inhibiting the LPS-induced activation of COX-2 promoter in a concentration-dependent manner”.

Values taken from patent US12502374B2, “Composition for preventing, alleviating, or treating inflammatory disease containing isookanin or salt thereof as active ingredient” (BioSpectrum, Inc., priority 2020, dated 2025).
